Source: ChEMBL document CHEMBL1201862, “PubChem BioAssay data set” (2004)
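Protocol summary: plate cells (96-well), add compound at 5 concentrations, incubate 48 h, interpolate endpoints linearly. GI50: concentration for 50% inhibition of growth.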 Activity calls are given as the source filed them. Cut-off read from the data, not from the text of the source: active = GI50 up to about 1.1 µM and inactive = higher.

How the values were obtained:
Assay in all cases: DTP human tumour cell line panel, 48 h
786-0 = test system: 786-0
A498 = test system: A498
ACHN = test system: ACHN
CAKI-1 = test system: CAKI-1
CCRF-CEM = test system: CCRF-CEM
DU-145 = test system: DU-145
HCT-116 = test system: HCT-116
KM12 = test system: KM12
M14 = test system: M14
MOLT-4 = test system: MOLT-4
Malme-3M = test system: Malme-3M
NCI-H460 = test system: NCI-H460
OVCAR-8 = test system: OVCAR-8
PC-3 = test system: PC-3
SF-268 = test system: SF-268
SK-MEL-28 = test system: SK-MEL-28
SNB-19 = test system: SNB-19
SNB-75 = test system: SNB-75
SW-620 = test system: SW-620
UO-31 = test system: UO-31

Compound | GI50 (786-0) | GI50 (A498) | GI50 (ACHN) | GI50 (CAKI-1) | GI50 (CCRF-CEM) | GI50 (DU-145) | GI50 (HCT-116) | GI50 (KM12) | GI50 (M14) | GI50 (MOLT-4) | GI50 (Malme-3M) | GI50 (NCI-H460) | GI50 (OVCAR-8) | GI50 (PC-3) | GI50 (SF-268) | GI50 (SK-MEL-28) | GI50 (SNB-19) | GI50 (SNB-75) | GI50 (SW-620) | GI50 (UO-31)
CC(=O)OCC1=C2C(OC(=O)C(C)C)CC3(COC(C)=O)OC3/C=C\C3(C)OC3C2OC1=O (stereo not drawn) | > 100 µM (inactive) | > 100 µM (inactive) | > 100 µM (inactive) | > 100 µM (inactive) | 50.5 µM (inactive) | > 100 µM (inactive) | > 100 µM (inactive) | > 100 µM (inactive) | > 100 µM (inactive) | > 100 µM (inactive) | > 100 µM (inactive) | > 100 µM (inactive) | > 100 µM (inactive) | > 100 µM (inactive) | > 100 µM (inactive) | > 100 µM (inactive) | > 100 µM (inactive) | > 100 µM (inactive) | > 100 µM (inactive) | > 100 µM (inactive)
COc1ccc([N+](=O)[O-])c2c(NCCCN(C)C)c3ccccc3nc12 | 0.0778 µM (active) | 0.0204 µM (active) | 0.13 µM (active) | 0.333 µM (active) | 0.546 µM (active) | 0.126 µM (active) | 0.112 µM (active) | 0.0991 µM (active) | 0.183 µM (active) | 0.0326 µM (active) | 0.155 µM (active) | 0.0355 µM (active) | 0.288 µM (active) | 0.0276 µM (active) | 0.236 µM (active) | 3 µM (inactive) | 0.202 µM (active) | 0.222 µM (active) | 0.0929 µM (active) | 0.255 µM (active)
CC(=O)N(C(=O)CC(=O)NNCc1ccccc1Cl)c1ccc(Cl)cc1 | > 10 µM (inactive) | > 10 µM (inactive) | > 10 µM (inactive) | > 10 µM (inactive) | > 10 µM (inactive) | > 10 µM (inactive) | > 10 µM (inactive) | > 10 µM (inactive) | > 10 µM (inactive) | > 10 µM (inactive) | > 10 µM (inactive) | > 10 µM (inactive) | > 10 µM (inactive) | > 10 µM (inactive) | > 10 µM (inactive) | > 10 µM (inactive) | > 10 µM (inactive) | > 10 µM (inactive) | – | > 10 µM (inactive)
O=c1[nH][nH]c(=O)n1CCCCCCn1c(=O)[nH][nH]c1=O | > 100 µM (inactive) | > 100 µM (inactive) | – | > 100 µM (inactive) | > 100 µM (inactive) | > 100 µM (inactive) | > 100 µM (inactive) | > 100 µM (inactive) | > 100 µM (inactive) | > 100 µM (inactive) | > 100 µM (inactive) | > 100 µM (inactive) | > 100 µM (inactive) | > 100 µM (inactive) | > 100 µM (inactive) | > 100 µM (inactive) | > 100 µM (inactive) | > 100 µM (inactive) | > 100 µM (inactive) | > 100 µM (inactive)
FC(F)(F)c1cccc(-c2nc3ccccc3c3c2[C@@]2(N4CCCC4)CCCC[C@@H]32)c1 | 38.4 µM (inactive) | 31.2 µM (inactive) | – | 50.9 µM (inactive) | 29.6 µM (inactive) | 51.5 µM (inactive) | 35.6 µM (inactive) | 35.6 µM (inactive) | 66.2 µM (inactive) | 28.1 µM (inactive) | 32.9 µM (inactive) | 28.1 µM (inactive) | – | 37 µM (inactive) | 33.3 µM (inactive) | – | 50.9 µM (inactive) | 30.1 µM (inactive) | 36.2 µM (inactive) | 18 µM (inactive)
CCOC(=O)C1C(=O)CC(C)(O)C(C(=O)OCC)C1c1ccc(O)c(OC)c1 (stereo not drawn) | > 100 µM (inactive) | > 100 µM (inactive) | > 100 µM (inactive) | > 100 µM (inactive) | > 100 µM (inactive) | > 100 µM (inactive) | > 100 µM (inactive) | > 100 µM (inactive) | – | > 100 µM (inactive) | > 100 µM (inactive) | > 100 µM (inactive) | > 100 µM (inactive) | > 100 µM (inactive) | > 100 µM (inactive) | > 100 µM (inactive) | > 100 µM (inactive) | > 100 µM (inactive) | > 100 µM (inactive) | > 100 µM (inactive)
CCOC(=O)/C(=C/NC(=S)Nc1c(CC)cccc1C(C)(C)C)C(=O)c1ccccc1 | > 100 µM (inactive) | > 100 µM (inactive) | > 100 µM (inactive) | > 100 µM (inactive) | > 100 µM (inactive) | > 100 µM (inactive) | > 100 µM (inactive) | > 100 µM (inactive) | > 100 µM (inactive) | > 100 µM (inactive) | > 100 µM (inactive) | 10 µM (inactive) | > 100 µM (inactive) | > 100 µM (inactive) | > 100 µM (inactive) | > 100 µM (inactive) | – | 29.3 µM (inactive) | > 100 µM (inactive) | 14.7 µM (inactive)
